The text below walks through data of PubChem BioAssay (NCI).

Where “and” joins values, the source holds several entries; their conditions need not be identical. Equal values may be shown once.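 The compound was tested at five concentrations on cells cultured in 96-well plates, with a 48-hour exposure period. GI50: concentration for 50% inhibition of growth. TGI: concentration producing complete growth inhibition.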 A value given as a limit tells only on which side of the number the result lay.

Assay in all cases: NCI tumour cell line growth inhibition, 48 h
Assay [1] concerns NCI/ADR-RES ovarian.
The test system of assay [2] is SF-539 CNS.
Assay [3] concerns ACHN renal.
Assay [4] has as its system HOP-62 NSCLC.
Assay [5] relates to SNB-19 CNS.
For assay [6], the system named is NCI-H23 lung.
Assay [7] relates to OVCAR-4 ovarian.
The test system of assay [8] is MALME-3M melanoma.
For assay [9], the system named is U251 CNS.
The subject of assay [10] is HOP-92 NSCLC.

For the molecule `COc1cccc2c1C(=O)c1c(O)c3c(c(O)c1C2=O)CC(O)(C(O)CO)CC3OC1CC(N2CCOCC2)C(O)C(C)O1` (centres undefined), the TGI in assay [1] is 0.31 µM; in [2] it was 0.014 µM and 0.0744 µM; in [3], 0.122 µM; in assay [4], 0.0566 µM and 0.081 µM; in [5], 0.139 µM and 0.801 µM; in assay [6], 0.0249 µM and 0.0419 µM. In addition, the TGI in assay [8] is 0.00768 µM and 0.0309 µM; in [9], 1.26 µM and 1.05 µM; in assay [10], 0.0652 µM. The GI50 in assay [2] is 0.0187 µM; in assay [4], 0.0262 µM; in assay [5] it was 0.0305 µM; in [6], 0.0174 µM; in [7] it was 0.0145 µM; in [8] it was 0.0132 µM. Also, the GI50 in [9] is 0.0155 µM; in assay [10] it was 0.0188 µM.
As for `COc1cc(Nc2c(C#N)cnc3cc(OCCCN4CCN(C)CC4)c(OC)cc23)c(Cl)cc1Cl`, the GI50 in [1] was 4.6 µM; in [2], 2.3 µM; in [3], 0.317 µM; in assay [4], 4.69 µM; in [5] it was 9.26 µM; in assay [6], 4.55 µM. For the same molecule, the GI50 in [7] was 4.6 µM; in [8], 1.83 µM; in assay [9], 3.1 µM; in [10], 2.08 µM. The TGI was 42.9 µM in assay [1]; 5.83 µM in assay [2]; 9.7 µM in [3]; 17.6 µM in assay [4]; 21.1 µM in assay [5]; 17.7 µM in assay [6]. In addition, the TGI in [7] amounted to 21 µM; in [8], 3.67 µM; in assay [9], 8.37 µM; in assay [10], 10.5 µM.
Take `CCn1cnc(C[C@H](NC(=O)[C@@H](NC(=O)Nc2cc(C(F)(F)F)cc(C(F)(F)F)c2)C(C)C)C(=O)OC)c1`: the GI50 in [1] was over 10 µM; in [2], 3.36 µM; in assay [3], 5.94 µM; in assay [4], 1.87 µM; in assay [5], 1.61 µM; in [6] it was 2.69 µM. For the same molecule, the GI50 in assay [7] was 1.83 µM; in assay [8], over 10 µM; in assay [9], 1.98 µM; in [10] it was 6.88 µM. The TGI in assay [1] is over 10 µM; in assay [2], over 10 µM; in assay [3], over 10 µM; in assay [4] it was 3.65 µM; in assay [5] it was 3.19 µM; in assay [6], over 10 µM. In addition, the TGI in assay [7] is 3.54 µM; in assay [8], over 10 µM; in assay [9], 3.96 µM; in assay [10], over 10 µM.
Take `O=c1cc(-c2ccccc2F)[nH]c2ccc(N3CCCC3)cc12`: the GI50 in assay [1] is under 0.001 µM; in assay [4], under 0.001 µM; in [5], under 0.001 µM; in assay [6], 0.199 µM; in assay [9], under 0.001 µM. The TGI in assay [2] was 0.0134 µM; in assay [3], over 100 µM; in assay [4] it was over 100 µM; in assay [5] it was 0.0725 µM; in [7] it was 55.3 µM; in [8] it was over 100 µM. Also, the TGI in [10] is over 100 µM.
`COc1ccc(-c2nc(/C=N/Nc3cc(C)nc4ccc(Cl)cc34)c(C)o2)cc1`: the GI50 in assay [1] was 1.97 µM; in assay [2], 1.97 µM; in [3], 1.81 µM; in [4] it was 1.64 µM; in [5] it was 1.81 µM; in assay [6], 1.99 µM. Also, the GI50 in assay [7] was 1.53 µM; in assay [8], 1.84 µM; in assay [9], 1.78 µM; in assay [10], 1.5 µM. Moreover, the TGI in assay [1] was determined as 3.95 µM; in [2] it was 3.45 µM; in [3], 3.2 µM; in assay [4], 3.12 µM; in [5] it was 3.46 µM; in assay [6], 4.09 µM. Further, the TGI was 2.9 µM in assay [7], 3.43 µM in assay [8], 3.28 µM in [9] and 2.98 µM in assay [10].
For the molecule `C#CC1(O)C(COP(=O)(O)OC(COCCCCCCCCCCCCCCCCCC)COP(=O)(O)OCC2OC(n3cc(F)c(=O)[nH]c3=O)CC2O)OC(n2ccc(N)nc2=O)C1O` (centres undefined), the TGI in assay [1] is 8.28 µM and 30.5 µM; in assay [2] it was 12.2 µM and 22.3 µM; in [3], over 100 µM; in [4], > 86.5 µM and 33.9 µM; in assay [5], 16.7 µM and 15.1 µM; in [6], 20.7 µM and 33.1 µM. Moreover, the TGI in assay [7] is 31.4 µM and 23.4 µM; in [8], 21.8 µM and 3.51 µM; in assay [9], 17.2 µM and 20.6 µM; in assay [10] it was 10.6 µM and > 95.6 µM. Also, the GI50 is 0.613 µM and 2.28 µM in [6]; 3.05 µM and 1.5 µM in [7]; 0.742 µM and 0.202 µM in assay [8]; < 0.0428 µM and 0.177 µM in assay [9]; 33.4 µM in [10].
In the case of `COc1c(O)cc2oc(-c3ccc(O)cc3)cc(=O)c2c1O`, the TGI in assay [1], in assay [2], in assay [3], in assay [4], in assay [5] and in assay [6] was over 100 µM each time. Besides, the TGI in assay [7] was over 100 µM; in [8], over 100 µM; in [9], over 100 µM; in assay [10] it was 36.8 µM.
For the molecule `Cc1ccc(-c2nc(C#N)c(S(=O)(=O)n3nc(C)cc3N)o2)cc1`, the GI50 was 19 µM in assay [1]; 5.07 µM in assay [2]; 1.91 µM in assay [3]; 17.7 µM in assay [4]; 14.1 µM in [5]; 13.9 µM in assay [6]. Besides, the GI50 in [7] is 4.26 µM; in assay [8], 1.82 µM; in [9], 13.6 µM; in [10] it was 2.27 µM. For the same molecule, the TGI in assay [1] stood at 78.5 µM; in assay [2], 17.4 µM; in assay [3], 3.38 µM; in assay [4] it was 35.1 µM; in [5], 28.4 µM; in [6], 37.3 µM. Further, the TGI was 20.7 µM in assay [7], 3.54 µM in assay [8], 26.5 µM in assay [9] and 5.71 µM in assay [10].
Consider `CC(=O)C(=Cc1ccc(C=C(C(C)=O)C(C)=O)cc1)C(C)=O`, for which the TGI in assay [1] turned out to be 11.2 µM; in assay [2], 4.03 µM; in assay [3], 3.59 µM; in assay [4], 6.38 µM; in assay [5] it was 5.46 µM; in assay [6], 4.59 µM. Further, the TGI in assay [7] amounted to 6.76 µM; in assay [8], 4.84 µM; in [9], 4.24 µM; in assay [10], 5.87 µM.
